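Five compound concentrations were applied to cells in 96-well plates for 48 hours; endpoints were derived by simple linear interpolation of the resulting dose-response curve. GI50: concentration for 50% inhibition of growth. At the TGI there is no net growth.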

Test systems include ACHN renal; CAKI-1 renal; EKVX NSCLC; MOLT-4 leukemia; OVCAR-3 ovarian; RXF 393 renal; SR leukemia; SW-620 colon; MALME-3M melanoma; OVCAR-5 ovarian.
Common to all, as to test: NCI tumour cell line growth inhibition, 48 h

As for `O=[N+]([O-])c1ccc(Cl)cc1N/N=C/c1ccnc2ccccc12`, the TGI in the assay with ACHN renal, in the assay with CAKI-1 renal, in the assay on EKVX NSCLC, in the assay on MOLT-4 leukemia, with OVCAR-3 ovarian and with RXF 393 renal was greater than 100 µM in each case. In addition, the TGI in the assay on SR leukemia and in the assay on SW-620 colon was greater than 100 µM each time.
Consider `Cc1ccc(/C=C/C(=O)CCN(C)C)cc1`, for which the TGI was 32.9 µM with ACHN renal; 26.8 µM with CAKI-1 renal; 39.7 µM with MALME-3M melanoma; 51.7 µM in the assay on MOLT-4 leukemia; 39.4 µM in the assay with OVCAR-3 ovarian; greater than 100 µM with OVCAR-5 ovarian. The TGI was 41.6 µM in the assay with RXF 393 renal, 62.7 µM in the assay on SR leukemia and 30.2 µM in the assay on SW-620 colon.
As for `CCC(=C/[C@H](C)C/C=C/C(C)=C/[C@@H](C)C(=O)[C@@H](C)[C@H](O)[C@@H](C)CC)/C=C/[C@H]1OC(=O)C=C[C@@H]1C`, the GI50 in the assay on ACHN renal, in the assay with CAKI-1 renal, with EKVX NSCLC, in the assay with MALME-3M melanoma, in the assay with MOLT-4 leukemia and with OVCAR-3 ovarian was less than 0.01 µM in each case. Further, the GI50 in the assay on OVCAR-5 ovarian, in the assay on SR leukemia and in the assay with SW-620 colon was less than 0.01 µM throughout. In addition, the TGI in the assay with ACHN renal stood at 0.566 µM; with CAKI-1 renal, 0.327 µM; with EKVX NSCLC, 5.21 µM; in the assay with MALME-3M melanoma it was 0.175 µM; in the assay on MOLT-4 leukemia, 0.114 µM; in the assay with OVCAR-3 ovarian, 3.96 µM. Further, the TGI in the assay on SW-620 colon stood at 1.32 µM.
Take `O=S(=O)(N/N=C/c1cccc(/C=N/NS(=O)(=O)c2ccccc2)c1)c1ccccc1`: the TGI with ACHN renal, with EKVX NSCLC, in the assay on MALME-3M melanoma, with MOLT-4 leukemia, in the assay with OVCAR-3 ovarian and in the assay on OVCAR-5 ovarian was greater than 100 µM throughout. Moreover, the TGI with RXF 393 renal and in the assay with SR leukemia was greater than 100 µM throughout.
Consider `COc1cc(-c2ccc3cc(OC)c(OC)c(OC)c3c2)cc(OC)c1OC`, for which the GI50 in the assay on ACHN renal was 40.2 µM; in the assay on CAKI-1 renal, greater than 100 µM; with MALME-3M melanoma, 8.75 µM; in the assay with MOLT-4 leukemia, greater than 100 µM; in the assay with OVCAR-3 ovarian, greater than 100 µM; in the assay with OVCAR-5 ovarian it was greater than 100 µM. Moreover, the values for the GI50 with RXF 393 renal and in the assay on SR leukemia were 5.91 µM and 5.19 µM, respectively. Moreover, the TGI with ACHN renal, with CAKI-1 renal, in the assay on MALME-3M melanoma, with MOLT-4 leukemia, in the assay on OVCAR-3 ovarian and with OVCAR-5 ovarian was greater than 100 µM throughout. Further, the figures for the TGI in the assay on RXF 393 renal and in the assay on SR leukemia were 44 µM and greater than 100 µM, respectively.
For the compound `COC[C@H]1Cn2cc(-c3nc(Nc4ccnn4C)ncc3C)nc2C(=O)N1Cc1ccc(F)c(F)c1`, the GI50 was 12.6 µM with ACHN renal; 0.795 µM in the assay on CAKI-1 renal; 0.255 µM in the assay with EKVX NSCLC; 23.9 µM with MOLT-4 leukemia; 60.6 µM in the assay on OVCAR-3 ovarian; 0.103 µM with OVCAR-5 ovarian. Also, the GI50 is 1.66 µM with RXF 393 renal, greater than 100 µM with SR leukemia and 0.156 µM with SW-620 colon. For the same compound, the TGI in the assay on ACHN renal, in the assay on CAKI-1 renal, in the assay on EKVX NSCLC, in the assay with MOLT-4 leukemia, in the assay with OVCAR-3 ovarian and with OVCAR-5 ovarian was greater than 100 µM in each case. Moreover, the TGI in the assay with RXF 393 renal, in the assay on SR leukemia and with SW-620 colon was greater than 100 µM each time.
Consider `COc1ccc(-c2cn[nH]c2-c2cc(OC)c(OC)c(OC)c2)cc1`, for which the GI50 was 0.0615 µM in the assay on ACHN renal; 0.0187 µM in the assay with CAKI-1 renal; 0.0457 µM in the assay with MOLT-4 leukemia; 0.0228 µM in the assay with OVCAR-3 ovarian; 0.0375 µM in the assay on OVCAR-5 ovarian; 0.0269 µM with RXF 393 renal. For the same compound, the GI50 was 0.0177 µM with SR leukemia and 0.0316 µM in the assay on SW-620 colon. Besides, the TGI in the assay on ACHN renal was 21.3 µM; in the assay on CAKI-1 renal, 18.2 µM; in the assay on MOLT-4 leukemia it was 4.21 µM; in the assay on OVCAR-3 ovarian it was 0.0694 µM; in the assay on OVCAR-5 ovarian, 36.9 µM; with RXF 393 renal it was 25.1 µM. For the same compound, the TGI was found to be 13.9 µM in the assay with SR leukemia and 26.7 µM in the assay with SW-620 colon.
As to `Cc1ccc(Oc2ccc(C)cc2N)cc1`, the TGI with EKVX NSCLC, in the assay with MALME-3M melanoma, in the assay on MOLT-4 leukemia, with OVCAR-3 ovarian, with OVCAR-5 ovarian and in the assay on RXF 393 renal was greater than 100 µM in each case. In addition, the TGI in the assay on SR leukemia and in the assay on SW-620 colon was greater than 100 µM throughout.
For the compound `Cc1cc2c(C)[nH]nc2c(C(=O)O)c1C`, the TGI with ACHN renal, in the assay with CAKI-1 renal, in the assay on EKVX NSCLC, with MOLT-4 leukemia, in the assay with OVCAR-3 ovarian and in the assay on RXF 393 renal was greater than 100 µM in each case. For the same compound, the TGI in the assay on SR leukemia and in the assay on SW-620 colon was greater than 100 µM in each case.
As to `C[C@]12CCC3c4ccc(O)cc4CCC3C1CC[C@@]2(O)CNC(=O)/C=C/c1ccc(O)c(O)c1` (some centres not stated), the GI50 in the assay with ACHN renal was 2.41 µM; in the assay on CAKI-1 renal it was 11.7 µM; in the assay on EKVX NSCLC, 9.97 µM; in the assay on MOLT-4 leukemia it was 5.09 µM; with OVCAR-3 ovarian, 2.89 µM; in the assay with OVCAR-5 ovarian, 25.1 µM. In addition, the GI50 in the assay on RXF 393 renal is 3.29 µM; in the assay with SR leukemia it was 5.66 µM; with SW-620 colon, 9.36 µM. Further, the TGI stood at 6.14 µM with ACHN renal; 33 µM in the assay on CAKI-1 renal; 29.8 µM with EKVX NSCLC; 31.2 µM in the assay on MOLT-4 leukemia; 21.5 µM in the assay with OVCAR-3 ovarian; 46.9 µM in the assay with OVCAR-5 ovarian. Also, the TGI in the assay with RXF 393 renal came out at 18.7 µM; in the assay on SR leukemia, 26.7 µM; with SW-620 colon, 27.2 µM.
For `O=C1C=CC(=O)c2nc3c(cc21)CCC3`, the TGI in the assay on ACHN renal is 33.1 µM; in the assay on CAKI-1 renal, 31.4 µM; with MALME-3M melanoma, 31.4 µM; in the assay with MOLT-4 leukemia, 33.7 µM; in the assay on OVCAR-3 ovarian, 32 µM; in the assay on OVCAR-5 ovarian it was greater than 100 µM. Moreover, the TGI in the assay with RXF 393 renal was determined as 34.2 µM; in the assay with SR leukemia, 27 µM; in the assay with SW-620 colon it was 31.1 µM.
On to `Nc1c(C(=O)Nc2cccc(C(F)(F)F)c2)sc2nc3c(cc12)CCCCC3`, for which the GI50 in the assay with ACHN renal was 1.56 µM; in the assay on CAKI-1 renal it was 2.08 µM; in the assay with MALME-3M melanoma, 3 µM; in the assay on MOLT-4 leukemia, 15 µM; in the assay on OVCAR-3 ovarian, 2.84 µM; in the assay with OVCAR-5 ovarian it was 3.43 µM. Also, the values for the GI50 with RXF 393 renal, in the assay with SR leukemia and in the assay on SW-620 colon were 1.84 µM, 4.03 µM and 6.42 µM, respectively. The TGI with ACHN renal was determined as 3.73 µM; with CAKI-1 renal it was 10.1 µM; with MALME-3M melanoma, 9.49 µM; with MOLT-4 leukemia, 51.6 µM; in the assay with OVCAR-3 ovarian it was 11.5 µM; in the assay with OVCAR-5 ovarian, 17.3 µM. The TGI in the assay with RXF 393 renal was 4.86 µM; in the assay with SR leukemia it was 21.7 µM; in the assay with SW-620 colon, greater than 100 µM.

For the origin of these results see PubChem BioAssay (NCI).
